Columns and labels:
[1] = MTT cytotoxicity, WI-38 (Example 6); format: cell-based; settings: human, WI-38 cells (normal lung cell line), 72-hour incubation
[2] = system: PC3 cells; assay: MTT cytotoxicity and taxane combination (CI) analysis, PC3 (Example 6); format: cell-based, human; settings: for IC50: Homo sapiens, PC-3, MTT, 72-hour incubation, single agent; for CI value / Fa value / Relationship: PC3, 1y 7.5 μM or 1w 1.0 μM; for cytotoxicity of combination with docetaxel or cabazitaxel versus each drug administered independently: PC3 cells
[3] = system: DU-145 cells; assay: MTT cytotoxicity and taxane combination (CI) analysis, DU-145 (Example 6); format: cell-based, human; settings: for CI value / Fa value / Relationship: 1y 7.5 μM or 1w 1.0 μM
[4] = target: FABP7 (Homo sapiens (Human), UniProt O15540); assay: FABP7 fluorescent probe displacement binding assay; settings: average ± S.E. of at least three independent experiments
Sequence of FABP7 (O15540 whole entry): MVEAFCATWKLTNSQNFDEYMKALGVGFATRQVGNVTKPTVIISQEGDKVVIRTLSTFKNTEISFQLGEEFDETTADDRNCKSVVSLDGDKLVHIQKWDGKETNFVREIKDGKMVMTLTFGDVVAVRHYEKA

[5] = system: 22Rv1 cells; assay: MTT cytotoxicity and taxane combination (CI) analysis, 22Rv1 (Example 6); format: cell-based, human; settings: for CI value / Fa value / Relationship / IC50: 22Rv1; for CI value / Fa value / Relationship: 1y 7.5 μM or 1w 1.0 μM; for cytotoxicity of combination with docetaxel or cabazitaxel versus each drug administered independently: 22Rv1 cells; for IC50: Homo sapiens, MTT, 72-hour incubation, single agent
[6] = target: FABP3 (Homo sapiens (Human), UniProt P05413); assay: FABP3 fluorescent probe displacement binding assay; settings: average ± S.E. of at least three independent experiments
Sequence of FABP3 (P05413 whole entry): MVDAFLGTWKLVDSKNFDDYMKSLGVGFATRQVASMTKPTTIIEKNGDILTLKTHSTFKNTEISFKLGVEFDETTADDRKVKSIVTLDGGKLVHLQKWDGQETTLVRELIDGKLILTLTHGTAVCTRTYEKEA

[7] = system: PC3 cells implanted subcutaneously; assay: Subcutaneous PC3 tumor growth in nude mice; format: in vivo, male BALB/c nude mice; settings: for tumor growth: ip
[8] = MTT cytotoxicity, RWPE-1 (Example 6); format: cell-based; settings: human, RWPE-1 cells (normal prostate cell line), 72-hour incubation
[9] = combination with cabazitaxel 0.03 nM
[10] = combination with cabazitaxel 0.3 nM
[11] = combination with cabazitaxel 3.0 nM
[12] = combination with docetaxel 0.03 nM
[13] = combination with docetaxel 0.3 nM
[14] = combination with docetaxel 3.0 nM
[15] = DU-145, combination with cabazitaxel 0.03 nM
[16] = DU-145, combination with cabazitaxel 0.3 nM
[17] = DU-145, combination with cabazitaxel 3.0 nM
[18] = DU-145, combination with docetaxel 0.03 nM
[19] = DU-145, combination with docetaxel 0.3 nM
[20] = DU-145, combination with docetaxel 3.0 nM
[21] = 20 mg/kg, once daily, from day 15, versus vehicle

Question: For `COc1ccccc1[C@H]1[C@H](C(=O)O)[C@H](c2ccccc2OC)[C@H]1C(=O)OCC1c2ccccc2-c2ccccc21` (racemic) [Compound 1w], which IC50 at 72 h [1] is on record?
Answer: 29.6 µM

Question: What about the IC50 [2] of the same compound?
Answer: 6.3 µM

Question: What about the CI value [2, 9] of the same compound?
Answer: 0.899

Question: And the Fa value [2, 9]?
Answer: 0.379

Question: What about the Relationship [2, 9] of the same compound?
Answer: synergistic

Question: And the CI value [2, 10]?
Answer: 0.942

Question: What about the Fa value [2, 10] of the same compound?
Answer: 0.420

Question: What about the Relationship [2, 10] of the same compound?
Answer: synergistic

Question: And the CI value [2, 11]?
Answer: 0.373

Question: What about the Fa value [2, 11] of the same compound?
Answer: 0.853

Question: What about the Relationship [2, 11] of the same compound?
Answer: synergistic

Question: And the CI value [2, 12]?
Answer: 0.710

Question: What about the Fa value [2, 12] of the same compound?
Answer: 0.402

Question: What about the Relationship [2, 12] of the same compound?
Answer: synergistic

Question: What about the CI value [2, 13] of the same compound?
Answer: 0.889

Question: What about the Fa value [2, 13] of the same compound?
Answer: 0.432

Question: And the Relationship [2, 13]?
Answer: synergistic

Question: And the CI value [2, 14]?
Answer: 0.394

Question: And the Fa value [2, 14]?
Answer: 0.700

Question: And the Relationship [2, 14]?
Answer: synergistic

Question: And the “cytotoxicity of combination with docetaxel or cabazitaxel versus each drug administered independently” value [2]?
Answer: greater cytotoxicity

Question: And the CI value [3, 15]?
Answer: 0.449

Question: What about the Fa value [3, 15] of the same compound?
Answer: 0.464

Question: What about the Relationship [3, 15] of the same compound?
Answer: synergistic

Question: And the CI value [3, 16]?
Answer: 0.300

Question: And the Fa value [3, 16]?
Answer: 0.716

Question: And the Relationship [3, 16]?
Answer: synergistic

Question: What about the CI value [3, 17] of the same compound?
Answer: 0.194

Question: What about the Fa value [3, 17] of the same compound?
Answer: 0.882

Question: What about the Relationship [3, 17] of the same compound?
Answer: synergistic

Question: What about the CI value [3, 18] of the same compound?
Answer: 4.473

Question: And the Fa value [3, 18]?
Answer: 0.516

Question: And the CI value [3, 19]?
Answer: 2.697

Question: And the Fa value [3, 19]?
Answer: 0.676

Question: And the CI value [3, 20]?
Answer: 0.445

Question: What about the Fa value [3, 20] of the same compound?
Answer: 0.935

Question: And the Relationship [3, 20]?
Answer: synergistic

Question: And the “cytotoxicity of combination with docetaxel or cabazitaxel versus each drug administered independently” value ([3]; DU-145 cells)?
Answer: greater cytotoxicity

Question: And the IC50 ([3]; Homo sapiens, DU-145, MTT, 72-hour incubation, single agent)?
Answer: 3.3 µM

Question: And the Ki [4]?
Answer: 4.26 ± 0.41 µM

Question: What about the CI value [5, 9] of the same compound?
Answer: 0.731

Question: What about the Fa value [5, 9] of the same compound?
Answer: 0.577

Question: And the Relationship [5, 9]?
Answer: synergistic

Question: What about the CI value [5, 10] of the same compound?
Answer: 0.549

Question: And the Fa value [5, 10]?
Answer: 0.728

Question: What about the Relationship [5, 10] of the same compound?
Answer: synergistic

Question: And the CI value [5, 11]?
Answer: 0.659

Question: What about the Fa value [5, 11] of the same compound?
Answer: 0.823

Question: And the Relationship [5, 11]?
Answer: synergistic

Question: What about the CI value [5, 12] of the same compound?
Answer: 1.673

Question: What about the Fa value [5, 12] of the same compound?
Answer: 0.457

Question: And the CI value [5, 13]?
Answer: 0.373

Question: And the Fa value [5, 13]?
Answer: 0.744

Question: And the Relationship [5, 13]?
Answer: synergistic

Question: And the CI value [5, 14]?
Answer: 0.267

Question: What about the Fa value [5, 14] of the same compound?
Answer: 0.905

Question: And the Relationship [5, 14]?
Answer: synergistic

Question: And the “cytotoxicity of combination with docetaxel or cabazitaxel versus each drug administered independently” value [5]?
Answer: greater cytotoxicity

Question: And the IC50 [5]?
Answer: 3.1 µM

Question: And the Ki [6]?
Answer: 25.3 ± 4.57 µM

Question: What about the “tumor growth, coadministration with docetaxel” value ([7]; 20 mg/kg ip daily in combination with docetaxel 5 mg/kg weekly, comparable in magnitude to the 10 mg/kg docetaxel dose) of the same compound?
Answer: greater inhibition of tumor growth than treatment with each compound alone

Question: And the tumor growth [7, 21]?
Answer: significantly reduced tumor growth

Question: And the IC50 at 72 h [8]?
Answer: 20.6 µM

Question: Which results are given for `COc1ccccc1[C@H]1[C@H](C(=O)O)[C@H](c2ccccc2OC)[C@H]1C(=O)Oc1cccc2ccccc12` (racemic) [Compound 1y]?
Answer: IC50 at 72 h [1]: 29.4 µM; IC50 [2]: 11.4 µM; CI value [2, 9]: 0.0001; Fa value [2, 9]: 0.998; Relationship [2, 9]: synergistic; CI value [2, 10]: 0.0001; Fa value [2, 10]: 0.999; Relationship [2, 10]: synergistic; CI value [2, 11]: 0.0001; Fa value [2, 11]: 0.999; Relationship [2, 11]: synergistic; CI value [2, 12]: 0.897; Fa value [2, 12]: 0.786; Relationship [2, 12]: synergistic; CI value [2, 13]: 0.009; Fa value [2, 13]: 0.950; Relationship [2, 13]: synergistic; CI value [2, 14]: 0.160; Fa value [2, 14]: 0.992; Relationship [2, 14]: synergistic; cytotoxicity of combination with docetaxel or cabazitaxel versus each drug administered independently [2]: greater cytotoxicity; Ki [4]: 0.67 ± 0.04 µM; CI value [5, 9]: 0.707; Fa value [5, 9]: 0.777; Relationship [5, 9]: synergistic; CI value [5, 10]: 0.396; Fa value [5, 10]: 0.899; Relationship [5, 10]: synergistic; CI value [5, 11]: 0.003; Fa value [5, 11]: 0.998; Relationship [5, 11]: synergistic; CI value [5, 12]: 3.846; Fa value [5, 12]: 0.795; CI value [5, 13]: 0.003; Fa value [5, 13]: 0.904; Relationship [5, 13]: synergistic; CI value [5, 14]: 0.005; Fa value [5, 14]: 0.999; Relationship [5, 14]: synergistic; cytotoxicity of combination with docetaxel or cabazitaxel versus each drug administered independently [5]: greater cytotoxicity; IC50 [5]: 10.1 µM; Ki [6]: 0.69 ± 0.17 µM; tumor growth [7, 21]: significantly reduced tumor growth; IC50 at 72 h [8]: 26 µM

Question: With `CC(=O)O[C@@]12CO[C@@H]1C[C@H](O)[C@@]1(C)C(=O)[C@H](O)C3=C(C)[C@@H](OC(=O)[C@H](O)[C@@H](NC(=O)OC(C)(C)C)c4ccccc4)C[C@@](O)([C@@H](OC(=O)c4ccccc4)[C@H]21)C3(C)C` [docetaxel, reference compound] as the compound, how does the tumor growth ([7]; 10 mg/kg, once weekly) read?
Answer: near complete inhibition of growth
